{"source": "ChEMBL document CHEMBL1126213", "about": "“Synthesis and biological activity of a 5,6-substituted teleocidin” (Bioorg Med Chem Lett, 1992)", "biological_target": "Protein kinase C, PKC; classical/novel", "assay": "Binding to PKC in 3[H]-[…] assay", "type": "protein assay"}
{"compound": "CC(C)[C@@H]1Nc2c3c(cc4[nH]cc(c24)C[C@@H](CO)NC1=O)C(C)(C)CCC3(C)C", "values": [{"measurement": "IC50", "value": 400, "unit": "nM"}]}
